Read-outs that look alike come from different tables or passages of the source.

Data on 12 molecules can be found in patent US11753373B2, “Protease inhibitors as antivirals” (priority 2021, dated 2023).

For data set [1], the target named is SARS-CoV-2 M^pro (3CL protease) (Severe acute respiratory syndrome coronavirus 2 (2019-nCoV) (SARS-CoV-2), UniProt P0DTD1). The format is biochemical. Conditions: read-out: SARS-CoV-2M^pro inhibition IC50.
The format of data set [2] is in vitro ADME. The conditions noted are these: extraction ratio, compound at 1 uM; for Liver Microsomal Stability (ER) SD rat: SD rat liver microsomes 0.5 mg/mL; for Liver Microsomal Stability (ER) Beagle dog: beagle dog liver microsomes 0.5 mg/mL; for Liver Microsomal Stability (ER) Monkey: monkey liver microsomes 0.5 mg/mL; for Liver Microsomal Stability (ER) Mouse: mouse liver microsomes 0.5 mg/mL.

Data set [3] is classed as in vitro ADME, Human. The conditions noted are these: extraction ratio; for Liver Microsomal Stability (ER) Human: compound at 1 uM, human liver microsomes 0.5 mg/mL.
The next data set deals with SARS-CoV-2. The data set is described as follows: Anti-viral in vitro PRNT assay in Vero E6 cells. It counts as cell-based. The conditions noted are these: Vero E6 cells, 1000 pfu, 3 days, plaque reduction; for EC50: read-out: anti-SARS-CoV2 (PRNT) in Vero E6 EC50.
For data set [4] the following is noted: mouse oral PK, female Balb/c, 40 mg/kg single dose; for AUC0-t / Cmax / Tmax / t1/2: plasma.
Description: Pharmacokinetics of test compounds was evaluated following an oral administration of a single dose (at 40 mg/kg) to female Balb/c mice.
Procedure: Test compounds were administered to Balb/c mice (n=3 per sex per time point) by a single oral gavage. The target dose level for oral administration was 40 mg/kg. Blood samples were collected at pre-dose, and at 0.083, 0.25, 0.50, 1, 2, 4, 6, 8, and 12 hours post-dose. Concentrations of test compound were determined by an LC-MS/MS. Non-compartmental Pharmacokinetic parameters of test compounds were analyzed using Phoenix WinNonlin 8.3.
Animal Dosing: All animals were fasted overnight through approximately 4 hours post-dose. Tap water was provided to mice ad Libitum. The mice were dosed orally at 10.0 ml/kg. The formulation volume of the test compound administered to each animal was calculated based on the body weight measured on the day of dosing.
Sample Collection and Analysis: Approximately 0.20 mL of blood was collected via orbital sinus vein puncture into EDTA-K2 tubes. Plasma samples were harvested by centrifugation and stored at −80° C. until analysis. The analytical method for test compound involved protein precipitation by adding acetonitrile containing 1% FA and internal standard (A-1-a synthesized in house or Tolbutamide purchased from Sigma), and final analysis by LC-MS/MS. A standard curve was prepared using mouse plasma for the test compound. The calibration curve was linear over a concentration range of 1.0 to 1000 ng/mL.
Pharmacokinetic and Statistic Analysis: The reported plasma concentrations of test compounds were used to determine pharmacokinetic parameters, using a non-compartmental model for data analysis (Phoenix WinNonlin 8.3). The common pharmacokinetic parameters were calculated, whenever possible, from the plasma concentration-versus-time data. Nominal doses and sampling times were used, except where deviations were noted. […] BQL after Tmax would not participate in calculation of PK parameters.
The mark [5] stands for this setting: wild type Mpro 17 nM, substrate 40 uM.

As to `CC(C)C[C@H](NC(=O)c1cc2ccccc2[nH]1)C(=O)N[C@@H](C[C@@H]1CCNC1=O)C(=O)CCl` [Compound A-1-g, (2S)—N-[(2S)-4-chloro-3-oxo-1-[(3S)-2-oxopyrrolidin-3-yl]butan-2-yl]-2-[(1H-indol-2-yl)formamido]-4-methylpentanamide], in data set [1], the IC50 amounted to 0.047 µM. Further, in data set [2], the “Liver Microsomal Stability (ER) SD rat” value amounted to 0.77, the “Liver Microsomal Stability (ER) Beagle dog” value stood at 0.71, the “Liver Microsomal Stability (ER) Monkey” value came out at 0.68 and the “Liver Microsomal Stability (ER) Mouse” value was 0.53. In data set [3], the “Liver Microsomal Stability (ER) Human” value was determined as 0.80. Also, the EC50 with SARS-CoV-2 (Severe acute respiratory syndrome coronavirus 2, Vero C1008, 72 h) came to 18.2 µM.
Consider `CC(C)C[C@H](NC(=O)c1cc2ccccc2[nH]1)C(=O)N[C@@H](C[C@@H]1CCNC1=O)C(=O)CO` [Compound A-1-h], for which the IC50 in data set [1] (setting [5]) is 0.0102 µM. Moreover, in data set [2], the “Liver Microsomal Stability (ER) SD rat” value was 0.13, the “Liver Microsomal Stability (ER) Beagle dog” value is reported as 0.03 and the “Liver Microsomal Stability (ER) Mouse” value amounted to 0.23. In data set [3], the “Liver Microsomal Stability (ER) Human” value worked out at 0.07. Also, the “anti-SARS-CoV2 (PRNT) in Vero E6 EC50 (μM)” value (from here on “anti-SARS-CoV2 (PRNT)”) in the data set with SARS-CoV-2 is on record as “Inactive”.
On to `Cc1cccc2[nH]c(C(=O)N[C@@H](CC(C)C)C(=O)N[C@@H](C[C@@H]3CCNC3=O)C(=O)CO)cc12` [Compound A-4-d], for which, in data set [4], the “AUC0-t” value was 120 ng·h/mL, the “Cmax” value is given as 52 ng/mL, the “Tmax” value was determined as 4 h and the “t1/2” value was determined as 2.14 h. In data set [1] (setting [5]), the IC50 stood at 0.00413 µM. Also, in data set [2], the “Liver Microsomal Stability (ER) SD rat” value came out at 0.19, the “Liver Microsomal Stability (ER) Beagle dog” value was 0.08 and the “Liver Microsomal Stability (ER) Mouse” value stood at 0.44. Besides, the “Liver Microsomal Stability (ER) Human” value in data set [3] is reported as 0.18. For the same molecule, the EC50 with SARS-CoV-2 worked out at 2.06 µM.
`CC(C)C[C@H](CC(=O)[C@@H](NC(=O)OCc1ccccc1)[C@@H](C)OC(C)(C)C)C(=O)N[C@H](C=O)C[C@@H]1CCNC1=O` [Compound C-1-b]: in data set [4], the “F % (bioavailability)” value is 2.9%, the “AUC0-t” value worked out at 128.4 ng·h/mL, the “Cmax” value came to 46.1 ng/mL and the “Tmax” value is on record as 2 h. In data set [4], the “t1/2” value worked out at 0.704 h. The IC50 in data set [1] (setting [5]) came out at 0.0013 µM. Besides, in data set [2], the “Liver Microsomal Stability (ER) SD rat” value amounted to 0.23, the “Liver Microsomal Stability (ER) Beagle dog” value is 0.48, the “Liver Microsomal Stability (ER) Monkey” value is 0.51 and the “Liver Microsomal Stability (ER) Mouse” value was 0.45. Moreover, the “Liver Microsomal Stability (ER) Human” value in data set [3] came to 0.66. The EC50 in the data set on SARS-CoV-2 is 1.02 µM.
Turning to `CC(C)(C)[C@H](NC(=O)C(F)(F)F)C(=O)N1C[C@H]2[C@@H]([C@H]1C(=O)N[C@H](C=O)C[C@@H]1CCNC1=O)C2(C)C` [Compound D-1-f], in data set [4], the “AUC0-t” value turned out to be 1402 ng·h/mL, the “Cmax” value was found to be 839 ng/mL, the “Tmax” value was found to be 1 h and the “t1/2” value is recorded as 1.37 h. For the same molecule, the IC50 in data set [1] (setting [5]) is 0.00108 µM. In data set [2], the “Liver Microsomal Stability (ER) SD rat” value is on record as −0.02, the “Liver Microsomal Stability (ER) Beagle dog” value came out at 0.01, the “Liver Microsomal Stability (ER) Monkey” value is 0.13 and the “Liver Microsomal Stability (ER) Mouse” value is listed as −0.02. Also, the “Liver Microsomal Stability (ER) Human, at 0.1 uM” value in data set [3] (compound at 0.1 uM, human liver microsomes) is 0.22(0.1 uM)*. Moreover, the “Liver Microsomal Stability (ER) Human” value in data set [3] is reported as 0.093,. The EC50 in the data set on SARS-CoV-2 is 7.59 µM.
Consider `CC(C)(C)[C@H](NC(=O)C(F)(F)F)C(=O)N1C[C@H]2[C@@H]([C@H]1C(=O)N[C@H](C#N)C[C@@H]1CCCNC1=O)C2(C)C` [Compound D-3-a], for which, in data set [4], the “AUC0-t” value was 5590 ng·h/mL, the “Cmax” value stood at 7070 ng/mL, the “Tmax” value is given as 0.25 h and the “t1/2” value was 0.706 h. In data set [1] (setting [5]), the IC50 was 0.00583 µM. In data set [2], the “Liver Microsomal Stability (ER) SD rat” value came out at 0.09, the “Liver Microsomal Stability (ER) Beagle dog” value is 0.16 and the “Liver Microsomal Stability (ER) Mouse” value is on record as 0.66. Further, the “Liver Microsomal Stability (ER) Human” value in data set [3] is 0.38. Besides, the EC50 in the data set on SARS-CoV-2 was determined as 1.27 µM.
For the molecule `CC(C)C[C@H](NC(=O)c1cc2ccccc2[nH]1)C(=O)N1C[C@H]2[C@@H]([C@H]1C(=O)N[C@H](C#N)C(C)(C)C)C2(C)C` [Compound G-3-b], in data set [4], the “AUC0-t” value stood at 383.7 ng·h/mL, the “Cmax” value is listed as 169 ng/mL, the “Tmax” value came to 2 h and the “t1/2” value was found to be 0.773 h. For the same molecule, in data set [1] (setting [5]), the IC50 was more than 10 µM. Also, in data set [2], the “Liver Microsomal Stability (ER) SD rat” value turned out to be 0.20, the “Liver Microsomal Stability (ER) Beagle dog” value was 0.32 and the “Liver Microsomal Stability (ER) Mouse” value is 0.55. The “Liver Microsomal Stability (ER) Human” value in data set [3] is on record as 0.28.
`CC(C)C[C@H](NC(=O)C(F)F)C(=O)N1C[C@H]2[C@@H]([C@H]1C(=O)N[C@H](C=O)C[C@@H]1CCNC1=O)C2(C)C` [Compound H-1-a]: the IC50 in data set [1] (setting [5]) stood at 0.00635 µM. Also, in data set [2], the “Liver Microsomal Stability (ER) SD rat” value is given as 0.05, the “Liver Microsomal Stability (ER) Beagle dog” value worked out at 0.10 and the “Liver Microsomal Stability (ER) Mouse” value was found to be 0.24. The “Liver Microsomal Stability (ER) Human” value in data set [3] is 0.08. Besides, the “anti-SARS-CoV2 (PRNT)” value in the data set on SARS-CoV-2 was “inactive”.
As to `CC(C)C[C@H](NC(=O)C(C)(C)C)C(=O)N1C[C@H]2[C@@H]([C@H]1C(=O)N[C@H](C#N)C[C@@H]1CCNC1=O)C2(C)C` [Compound H-1-d], in data set [1] (setting [5]), the IC50 was 0.0396 µM. Moreover, in data set [2], the “Liver Microsomal Stability (ER) SD rat” value is reported as 0.09, the “Liver Microsomal Stability (ER) Beagle dog” value worked out at 0.16 and the “Liver Microsomal Stability (ER) Mouse” value came out at 0.63. Further, in data set [3], the “Liver Microsomal Stability (ER) Human” value is reported as 0.26. Besides, the “anti-SARS-CoV2 (PRNT)” value in the data set with SARS-CoV-2 was “Inactive”.
In the case of `CC(C)(C)C(=O)N[C@H](C(=O)N1C[C@H]2[C@@H]([C@H]1C(=O)N[C@H](C#N)C[C@@H]1CCNC1=O)C2(C)C)C(C)(C)C` [Compound H-2-a], in data set [1] (setting [5]), the IC50 was 0.0407 µM. In addition, in data set [2], the “Liver Microsomal Stability (ER) SD rat” value came out at 0.15, the “Liver Microsomal Stability (ER) Beagle dog” value amounted to 0.52 and the “Liver Microsomal Stability (ER) Mouse” value was determined as 0.83. Besides, the “Liver Microsomal Stability (ER) Human” value in data set [3] is reported as 0.53. Besides, in the data set with SARS-CoV-2, the “anti-SARS-CoV2 (PRNT)” value is “Inactive”.
On to `CC(C)(C)[C@H](NC(=O)C1CC1)C(=O)N1C[C@H]2[C@@H]([C@H]1C(=O)N[C@H](C#N)C[C@@H]1CCNC1=O)C2(C)C` [Compound H-2-c], for which the IC50 in data set [1] (setting [5]) was 0.0061 µM. Also, in data set [2], the “Liver Microsomal Stability (ER) SD rat” value is given as 0.01, the “Liver Microsomal Stability (ER) Beagle dog” value is recorded as 0.01 and the “Liver Microsomal Stability (ER) Mouse” value worked out at 0.32. In addition, in data set [3], the “Liver Microsomal Stability (ER) Human” value is listed as 0.02. The EC50 with SARS-CoV-2 is 3.36 µM.
Consider `CC(C)C[C@H](NC(=O)[C@@H](NC(=O)C(F)F)[C@@H](C)OC(C)(C)C)C(=O)N[C@H](C#N)C[C@@H]1CCNC1=O` [Compound H-3-a], for which the IC50 in data set [1] (setting [5]) was 0.0081 µM. In data set [2], the “Liver Microsomal Stability (ER) SD rat” value came to 0.21, the “Liver Microsomal Stability (ER) Beagle dog” value is recorded as 0.06 and the “Liver Microsomal Stability (ER) Mouse” value came to 0.68. Further, in data set [3], the “Liver Microsomal Stability (ER) Human” value was determined as 0.35. Besides, the EC50 with SARS-CoV-2 amounted to 2.19 µM.

For orientation: IC50 means the concentration at which inhibition is half-maximal. Broadly, the EC50 is the concentration giving half of the maximal effect. The Cmax is the peak of the concentration-time curve. For orientation: Tmax means the time from dosing to the highest level.
